Where two headings read alike, the source gives them in different places.
Assays:
male Wistar rats [1] = test: ICSS thresholds during and after withdrawal from chronic nicotine, bupropion; type: in vivo, rat
Text: Trials began with an electrical stimulus followed by a 7.5-s response window within which the animal could make a response to receive a second contingent stimulus identical to the initial noncontingent stimulus. A response during this 7.5-s window was considered a positive response, whereas the lack of a response was considered a negative response. Additional responses during a 2-s period immediately following a positive response had no consequence. The intertrial interval (ITI) that followed either a positive response or the end of the response window (in the case of a negative response) ranged from 7.5 to 12.5 s with an average duration of 10 s. […] Subjects then were tested on a current-threshold procedure in which stimulus intensities were varied during four alternating descending and ascending series with a step size of […]. Blocks of three trials were offered at each current step with the starting current of the first descending series set at […] above the subjects' individual baseline thresholds estimated at the end of preliminary training. […] An ascending series was terminated after two consecutive blocks of trials during which the animal made positive responses on at least two out of the three trials or after 15 successive increments were presented. The mean of the four current thresholds from the alternating series was defined as the subject's ICSS threshold for that session. A series was terminated after either 15 stimulus increments (or decrements) had occurred, or after the determination of the threshold for the series (see below). Each test session typically lasted 30 min.
Naive animals were prepared with osmotic minipumps containing either an individualized nicotine solution (3.16 mg/kg per day, free base) or saline. […] After implantation of the minipumps, thresholds were assessed daily thereafter to assess the effects of chronic nicotine exposure on reward thresholds. Seven days (exactly seven 24-h periods) after pump insertion, the pumps were removed in order to precipitate the nicotine withdrawal syndrome. ICSS thresholds were measured 12, 18, 24, 36, 48 and 72 h after pump removal. Animals were injected with bupropion (0, 10, 20, 40 mg/kg IP; n=8-11) 30 min prior to the 18-h time point.

male Wistar rats [2] = test: Somatic signs of the nicotine withdrawal syndrome; type: in vivo, rat; settings: six hours after removal of the nicotine-containing minipumps
Procedure: Rats were placed individually in transparent plastic cylindrical containers (30×38 cm) in which they could move freely. Subjects were habituated to the containers for 10 min each day over 3 days before the first test session. During the test sessions the rats were observed blindly by an experienced observer for 10 min and the frequency of the following signs was recorded based on a checklist of nicotine abstinence signs (Hildebrand et al. 1999; Watkins et al. 2000; Malin 2001): body shakes, chews, cheek tremors, escape attempts, eye blinks, foot licks, gasps, genital licks, head shakes, ptosis, scratches, teeth chattering, writhes and yawns. Multiple successive counts of any sign required a distinct pause between episodes. Ptosis, if present continuously, was only counted once per minute. For statistical analyses, the total number of somatic signs was defined as the sum of individual occurrences of the above mentioned withdrawal signs. Further, the categories of “abdominal constrictions” included gasps and writhes; “facial fasciculation” included cheek tremors, chews, and teeth chattering; and “miscellaneous other signs” included shakes, escape attempts, licks, scratches, and yawns.
Separate drug-naive rats were prepared with osmotic minipumps containing nicotine (3.16 mg/kg per day for 7 days) dissolved in saline. […] Further, this nicotine dose was selected to allow direct comparison of the effects of bupropion on somatic signs (present experiment 4) and on reward threshold elevations (experiment 3 described above) observed during nicotine withdrawal. To induce the somatic signs of nicotine withdrawal the minipumps were removed 6 days and 18 h after implantation. The behavioral observations were conducted 6, 12 and 24 h after the removal of the minipumps. The rats were injected with bupropion (0, 5, 10, 20, 40 mg/kg, IP; n=6-8), 30 min prior to the 12-h time point. The selection of the time points was based on the time-course of the expression of the somatic signs after the termination of nicotine exposure (Epping-Jordan et al. 1998; Harrison et al. 2001a; Semenova and Markou 2003; Skjei and Markou 2003).

male Wistar rats [3] = settings: nicotine 0.25 mg/kg SC
Text: Trials began with an electrical stimulus followed by a 7.5-s response window within which the animal could make a response to receive a second contingent stimulus identical to the initial noncontingent stimulus. A response during this 7.5-s window was considered a positive response, whereas the lack of a response was considered a negative response. Additional responses during a 2-s period immediately following a positive response had no consequence. The intertrial interval (ITI) that followed either a positive response or the end of the response window (in the case of a negative response) ranged from 7.5 to 12.5 s with an average duration of 10 s. […] Subjects then were tested on a current-threshold procedure in which stimulus intensities were varied during four alternating descending and ascending series with a step size of 5 mA. Blocks of three trials were offered at each current step with the starting current of the first descending series set at 30-40 mA above the subjects' individual baseline thresholds estimated at the end of preliminary training. […] An ascending series was terminated after two consecutive blocks of trials during which the animal made positive responses on at least two out of the three trials or after 15 successive increments were presented. The mean of the four current thresholds from the alternating series was defined as the subject's ICSS threshold for that session. A series was terminated after either 15 stimulus increments (or decrements) had occurred, or after the determination of the threshold for the series (see below). Each test session typically lasted 30 min.

[4] = 9 mg/kg/day nicotine salt (3.16 mg/kg, free base) by osmotic mini-pump; cited from earlier work
Wistar rats [5] = test: Cocaine, nicotine and food responding under a progressive ratio schedule; type: in vivo, rat
Text: Under a fixed ratio schedule of reinforcement, as described above, an animal responds a ‘fixed’ number of times on an active lever to obtain a drug infusion. Fixed ratio (FR) schedules of reinforcement provide important information on whether a drug is reinforcing. […] By determining how hard an animal is willing to work for a drug, while limiting total intake, the PR schedule allows better separation of motivation for drug consumption from possible satiating effects of cumulative drug doses (Stafford et al. 1998). Such characteristics result in theoretically different interpretations of the factors controlling drug-seeking behavior on a PR compared with a FR. […] After acquisition of cocaine or nicotine self-administration under an FR, as described above, rats were switched to a PR schedule of reinforcement in which the following sequence of level presses was required to receive each subsequent infusion of nicotine or cocaine: 5, 10, 17, 24, 32, 42, 56, 73, 95, 124, 161, 208, etc. Rats were injected with MPEP (0, 1, 3 or 9 mg/kg) 30 min prior to each PR session. All PR sessions lasted for 3 h. All subjects reached breaking-points during the 3 hour session.

Wistar rats [6] = test: Cocaine-induced lowering of ICSS thresholds; type: in vivo, rat
drug-naïve rats = settings: cited from earlier work
rats = settings: 2.5-10 mg/kg i.p.; cited from earlier work
mice [7] = settings: 30 mg/kg i.p.; cited from earlier work
mice [8] = settings: Chiamulera et al. 2001; cited from earlier work
[9] = MPEP 3 mg/kg, 10, 40, 70 and 100 min

With CN1CCCC1c1cccnc1 (single isomer, unassigned; (-)) [nicotine, (−)-1-methyl-2-(3-pyridyl) pyrrolidine] the “day of maximal threshold-lowering effect” value (male Wistar rats [1]; nicotine via minipumps) was 3 days, the brain reward threshold (male Wistar rats [1]; nicotine via minipumps 3.16 mg/kg per day for 7 days) was “small yet significant reduction in brain reward threshold” and the “time points with significant elevation in reward thresholds post-withdrawal” value (male Wistar rats [1]; nicotine withdrawal, saline-injected animals) was “up to 36 h”. The brain reward thresholds (male Wistar rats [1]; withdrawal from chronic nicotine administration) was “significantly elevated brain reward thresholds”, the “total somatic signs of abstinence” value (male Wistar rats [2]) was “significant increase in the amount of total somatic signs of abstinence” and the brain reward thresholds (male Wistar rats [3]) was “resulted in lowering of brain reward thresholds”. For the same compound, the “stable plasma nicotine levels” value [4] was ~44 ng/mL.
For Cc1cccc(C#Cc2ccccc2)n1 [MPEP, 2-methyl-6-(phenylethynyl)-pyridine], the responding for food (Wistar rats [5]; MPEP 1-9 mg/kg, PR schedule) was “no statistically significant effect on responding for food”, the “responding under a progressive ratio schedule (motivation)” value (Wistar rats [5]; MPEP 1-9 mg/kg, cocaine, nicotine, food) was “decreased the motivation of rats to obtain cocaine or nicotine without affecting their motivation for food” and the break point (Wistar rats [5]; PR schedule, cocaine and nicotine) was “significantly lowered the break point for cocaine and nicotine”. The “duration of cocaine-induced lowering of ICSS thresholds” value (Wistar rats [6]; MPEP 3 mg/kg) was “did not attenuate the duration of time that cocaine lowered ICSS thresholds”, the ICSS Thresholds (Wistar rats [6]; [9]) was “had no effect on ICSS thresholds at any time-point” and the ICSS response Latencies (Wistar rats [6]; [9]) was “had no effect on response latencies at any time-point”. For the same compound, the ICSS Thresholds (Wistar rats [6]; MPEP 9 mg/kg before cocaine 10 mg/kg, compared to cocaine-treated rats that received vehicle) was “significantly elevated in cocaine-treated rats that previously received MPEP (9 mg/kg) compared to cocaine-treated rats that received vehicle injection”, the ICSS Thresholds (Wistar rats [6]; MPEP 9 mg/kg before cocaine 10 mg/kg, compared to saline-treated rats pretreated with vehicle) was “still significantly lowered compared to saline-treated rats pretreated with vehicle” and the “magnitude of cocaine-induced lowering of ICSS thresholds” value (Wistar rats [6]; MPEP 1-9 mg/kg) was “did not attenuate the magnitude of the lowering in ICSS thresholds observed after systemic cocaine administration”. For the same compound, the ICSS Thresholds (Wistar rats [6]; MPEP alone, 6 and 9 mg/kg significant) was “significantly elevated ICSS thresholds”, the ICSS response Latencies (Wistar rats [6]; MPEP, only the highest dose (9 mg/kg)) was “significantly increased response latencies” and the “reward-lowering effect of nicotine in a brain reward stimulation procedure” value (drug-naïve rats; 0.25 mg/kg nicotine (Harrison et al. 2002)) was “had no effect on the reward-lowering effect of 0.25 mg/kg nicotine”. The “dose that elevated ICSS thresholds in drug-naïve rats” value (drug-naïve rats; previous studies (Harrison et al., 2002; Macey et al., 2001)) was ≥ 3 mg/kg, the exploratory locomotor activity (rats) was “had no effect on exploratory locomotor activity in rats” and the rotarod performance (mice [7]) was “had no effect on rotarod performance”. For the same compound, the cocaine self-administration (mice [8]) was “dose-dependent reduction in cocaine self-administration without affecting responding for food”.

Reference: patent US8354447B2, “mGLU receptors antagonists for treating disorders associated with mGLU receptors including addiction and depression” (The Scripps Research Institute, priority 2002, dated 2013)
